The record followed here is patent US9664676B2, “RNA sequences that induce fluorescence of small molecule fluorophores” (Cornell University, priority 2013, dated 2017).

Data set [1] is described as follows: In vitro fluorescence activation of DFHBI-1T by 29-1 and truncation mutants. The class given is biochemical. The conditions noted are these: excess RNA conditions. The text has this:
In Vitro Characterization of Aptamers: dsDNA from the brightest bacterial cells in a library was PCR amplified from eluted plasmids. Truncation, deletion and point mutation mutants were generated from dsDNAs PCR amplified based on respective ssDNA templates (Protein and Nucleic Acid Facility, Stanford University Medical Center). Primers were designed so the PCR product contained T7 promoter sequence. When indicated, dsDNA or ssDNA also contained tRNA scaffold part. PCR products were then purified with PCR purification columns (Qiagen) and in vitro transcribed utilizing AmpliScribe T7-Flash Transcription Kit (Epicenter). RNA was purified using Bio-Spin columns (Bio-Rad), and quantified using both absorbance values and the Quant-iT RiboGreen RNA Assay Kit (Life Technologies).
All in vitro RNA properties were measured in 40 mM HEPES pH 7.4, 100 mM KCl, 1 mM MgCl2 buffer unless specified separately. All values presented are averaging of at least three independent experiments, error bars are standard deviations.
(§1) To measure the fluorescence of aptamer-fluorophore complexes, an approach that overcomes potential confounding effects of incomplete RNA folding was used. The fluorescence of RNA-fluorophore complexes can be measured in either of two ways: using “excess RNA” or “excess fluorophore” (Ponchon et al., “Recombinant RNA Technology: the tRNA Scaffold,” Nat. Methods 4(7): 571-6 (2007), which is hereby incorporated by reference in its entirety). In an “excess RNA” experiment enough RNA was added to ensure that all the fluorophore (e.g. 1 μM) is bound to the RNA even if a sizeable portion of the RNA is unfolded. As a result, one can be confident that a 1 μM RNA-fluorophore complex is present, and one can therefore calculate the “molar brightness,” the fluorescence of a specific concentration of RNA-fluorophore complex independent of RNA folding. In the case of excess fluorophore experimental conditions were reversed and 1 μM of RNA was used with a vast excess of the fluorophore. In this case, the amount of RNA-fluorophore complex is highly dependent on the amount of RNA that is folded.

Data set [2] deals with E. coli. Nature of the data set: Fluorescence measurements of E. coli (colonies, suspensions) expressing aptamers with DFHBI-1T. The class given is cell-based, Escherichia coli. As to the method: Fluorescence Measurements of E. coli: Fluorescence measurements of E. coli were done in two general ways. To assess fluorescence brightness of bacterial colonies on a plate Acella or LMG194 strains cells were transferred to a new LB/agar dish with respective antibiotic and allowed to grow overnight at 37° C. Typically four to six colonies for the same aptamer were grown on the same plate to provide statistical data. These plates already contained 40 μM DFHBI-1T (or DFHBI) and 0.2% arabinose (in case of LMG194 strain). When Acella strain was used, 1 mM IPTG was added the next morning and incubation was continued for four to six hours more at 37° C. Bacterial colonies were then imaged under ChemiDoc MP imager as described above and images were processed in ImageJ program.
To measure fluorescence of bacterial cell suspensions BL21 Star (DE3) (Life Technologies) strain and pET28c-based expression plasmids were used. This combination provided the strongest signal. Fresh colony was inoculated into LB media with kanamycin and allowed to grow overnight at 37° C. to OD600 0.4. The cells were then induced with addition of 1 mM IPTG for 2-4 h at 37° C. After induction, cells were normalized for cell density and incubated with 400 μM DFHBI-1T. Cells were then measured for total fluorescence using a Genios Pro plate reader at 465 nm excitation and 535 nm emission. All values were normalized for slightly different excitation and emission spectra of Spinach2 and Broccoli.

Data set [3] in a line: Folding measurements with DFHBI-1T. It is filed as physicochemical. The conditions noted are these: for percent folded: in vitro folding assay. As to the method: Briefly, fluorescence intensity of two solutions were compared: the one having excess of the dye and limiting amount of RNA and the other with excess of RNA and limiting amount of the dye. 1 μM of 1T (or RNA) and 20 μM of RNA (or 1T) was used. Signal from the first condition (limiting RNA) was divided by the signal from the second condition (limiting dye) to determine the fraction folded. To measure folding in a context of different flanking sequences RNA was generated from separate dsDNA fragments. These fragments were PCR amplified to have β-actin, 5S rRNA and 7SK RNA sequences on either or both sides of Broccoli. The folding assay then proceeded as described above.
as §1

Data set [4] concerns HEK293T cells. Nature of the data set: Flow cytometry of HEK293T cells expressing 5S rRNA-aptamer fusions with DFHBI-1T. It is filed as cell-based. The conditions noted are these: flow cytometry. The protocol:
FIG. 24 illustrates the quantification of the flow cytometry analysis of aptamers expression in mammalian cells. To compare specific aptamers' brightness in mammalian cells, HEK293T cells were transfected with two plasmids: one expressing aptamer (with or without tRNA) fused to 5S rRNA and another expressing mCherry fluorescent protein. Cells were then treated with 40 μM DFHBI-1T and analyzed on FACSAria III instrument in two channels: green (ex=488 nm; em=525±50 nm) and red (ex=561 nm and em=610±20). For quantification, mean fluorescent signal of the non-negative population was calculated and then mean fluorescent signal of the negative population was subtracted from it to assess specific, not background fluorescent signal. Finally, this number was multiplied by the percentage of the non-negative population to provide the total fluorescent signal of the non-negative population. These numbers are plotted on the bar graph above. Where indicated, cells were also pre-treated with 5 mM MgSO4. Error bar indicates robust SD calculated by FlowJo program, used for data analysis.
Imaging 5S-tBroccoli and 5S-t-tdBroccoli: Plasmids were transfected into HEK293T cell using FuGENE HD reagent (Promega) following manufacture's protocol. Cell imaging was carried out as previously described for 5S-Spinach (Paige et al., “RNA Mimics of Green Fluorescent Protein,” Science 333(6042): 642-6 (2011), which is hereby incorporated by reference in its entirety) with DFHBI-1T instead of DFHBI. […]
Flow cytometry was used to quantify average brightness of tRNA. Transfected cells were analyzed in two channels: green (ex=488 nm; em=525±50 nm) and red (ex=561 nm; em=610±20). […] As evidenced from FIG. 14A, 5S-tBroccoli and 5S-tdBroccoli are clearly detectable in the green fluorescence channel and this specific signal appears only upon cells treatment with DFHBI-1T (FIG. 23).
(In general: In flow cytometry, cells or beads pass a laser one at a time.)

A short description of data set [5]: Magnesium dependence of aptamer fluorescence. The class given is physicochemical. Conditions: MgCl2 titration. The protocol: To measure magnesium dependence 1 μM RNA was incubated with 10 μM 1T in 40 mM HEPES pH 7.4, 100 mM KCl buffer with different concentrations of MgCl2 and then fluorescence emission was measured on a plate reader.

With “29-1-T2: 56-nucleotide truncation of 29-1, SEQ ID NO: 4 (GAGACGGUCGGGUCCAGCACAAAAAUGUUGCUGUUGAGUAGAGUGUGGGCUC; listed as RNA, chemistry not given here)”, the “ability to induce DFHBI-1T fluorescence” value in data set [1] is “retained the ability to induce DFHBI-1T fluorescence”; in data set [1] (listed as T2) it was “able to induce fluorescence of DFHBI-1T”. The “colony fluorescence compared to 29-1” value in data set [2] (E. coli colonies on LB-DFHBI-1T agar, tRNA scaffold) was “significantly less bright than colonies expressing 29-1”. In addition, the percent folded in data set [3] is 45%.
For the molecule “Broccoli: 49 nt RNA aptamer, SEQ ID NO: 75; 29-1-3-1 designated Broccoli (GAGACGGUCGGGUCCAGAUAUUCGUAUCUGUCGAGUAGAGUGUGGGCUC; further chemistry not given here)”, the “detection in HEK293T cells of 5S fusions without tRNA scaffold” value in data set [4] is listed as “can be detected in cells”. Also, the “fluorescence of aptamer-expressing E. coli cells” value in data set [2] (tRNA fusions, suspension/plate reader, DFHBI-1T) is “more than twice as fluorescent as Spinach2-expressing cells”. Besides, the “magnesium concentration giving maximal fluorescence” value in data set [5] is around 300 µM. The “folding relative to 29-1” value in data set [3] (in vitro) came to 80%.

B1: tBroccoli: Broccoli with tRNA scaffold, SEQ ID NO: 38 (nucleic acid)
chain: GCCCGGATAGCTCAGTCGGTAGAGCAGCGGAGACGGTCGGGTCCAGATATTCGTATCTGTCGAGTAGAGTGTGGGCTCCGCGGGTCCAGGGTTCAAGTCCCTGTTCGGGCGCCA
modifications: chemistry not given here
B1: the “increase of E. coli fluorescence with 20 mM MgCl2” value in data set [2] (LB media with versus without 20 mM MgCl2, after 1 hr) came to 36%. In data set [3], this molecule displayed a percent folded of around 60%.
